Reference: PMC8805583, “Discovery of Herbacetin as a Novel SGK1 Inhibitor to Alleviate Myocardial Hypertrophy” (Advanced Science, 2021)

Assays:
[1] = target: T1, SGK1 (Homo sapiens, UniProt O00141); assay: Mass spectrometry-based SGK1 kinase inhibitory assay (LC/MS of phosphorylated […]); assay type: biochemical; conditions: for reduction in SGK1 inhibitory activity, absence of -OH at C-8: compared with HBT
T1 sequence (O00141 1-431): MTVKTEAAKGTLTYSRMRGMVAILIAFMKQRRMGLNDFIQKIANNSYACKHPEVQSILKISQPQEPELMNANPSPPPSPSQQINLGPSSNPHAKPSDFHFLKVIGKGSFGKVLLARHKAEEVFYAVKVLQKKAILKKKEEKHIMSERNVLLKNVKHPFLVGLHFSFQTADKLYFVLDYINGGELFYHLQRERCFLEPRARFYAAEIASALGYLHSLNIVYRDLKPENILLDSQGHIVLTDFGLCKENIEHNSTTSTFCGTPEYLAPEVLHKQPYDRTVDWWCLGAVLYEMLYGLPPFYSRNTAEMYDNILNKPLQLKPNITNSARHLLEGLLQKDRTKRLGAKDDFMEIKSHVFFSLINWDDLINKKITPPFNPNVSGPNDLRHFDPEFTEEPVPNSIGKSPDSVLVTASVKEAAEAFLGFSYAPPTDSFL
Description: To identify active compounds with SGK1 inhibitory activity from Ext.R, a novel mass‐spectrometry based kinase inhibitory assay was developed. A polypeptide sequence ([…], m/z: 618.6) derived from glycogen Synthase Kinase‐3(GSK3), a known substrate of SGK1, was optimized and synthesized. We subsequently used liquid chromatography coupled with mass spectrometry (LC/MS) to detect and quantify its phosphorylation level ([…](p)FAE, m/z:658.7) (Figure 3A).^[ [26] ^] Basal level SGK1 was supplemented to each well, and the peak area of phosphorylation was measured in the presence or absence of testing compounds. […] After investigating the major chemical constituents in Ext.R (Table S3, Supporting Information), a set of compounds in Ext.R were subsequently screened for their impacts on SGK1 activity. […] The direct interaction between HBT and SGK1 was further verified by temperature‐ and dose‐dependent cellular thermal shift assays (Figure 3E,F). We further performed a direct binding assay of HBT to SGK1 by KINOMEscan assay (Eurofins Discovery).
Synthesis of […] was prepared by Shanghai Sangong Biotech. In order to ensure the phosphorylation reaction of SGK1, SGK1 (0.25 µg mL^−1) was added to kinase buffer (25 mmol Tris [pH 7.5], 5 mmol β‐glycerolphosphate, 2 mmol DTT, 10 mmol MgCl2) with the substrate peptide […] (25 µmol) and ATP (200 µmol) and incubated for 1 h at 30 °C in the presence or absence of inhibitors. A concentration‐dependent assay for SGK1 at different concentrations (0.05, 0.1, 0.2, 0.25, and 0.3 µg mL^−1) was performed. Reactions were terminated by the addition of methyl alcohol with 0.1% trifluoroacetic acid (TFA), and supernatants were analyzed by the Agilent 1100 LC system (Agilent Technologies, USA) and a 1946D single quadrupole mass spectrometer. The acquisition parameters for LC/MS were set for positive ionization mode and selected ion monitoring (SIM) m/z values of 618.6 and 658.7 for the substrate peptide and product peptide respectively. Chromatographic separation was performed by a reversed‐phase ZORBAX SB‐C18 analytical column. The mobile phase included water containing 0.1% v/v TFA (A) and acetonitrile containing 0.1% v/v TFA (B). The flow rate was 0.6 mL min^−1. A gradient program was carried out according to the following profile: 0 min, 13% B; 15 min, 28% B; 16 min, 100% B. The constituents of Ext.R were screened by the assay to evaluate their inhibitory effects on SGK1 activity. A minimum of three replicates of each sample were analyzed and averaged together. Inhibition of SGK1 was calculated by the following equation (1) Inhibitionrate%=PC−PS/PC P C and P S represented the peak area of product peptide in the control group without test compounds and the tested sample group with various test compounds, respectively.

[2] = tested on: SGK1-dependent phosphorylation of NDRG1; set-up: method as in PMID 21865856; conditions: cited from earlier work
[3] = MS-based kinase inhibitory assay

SMILES: O=c1cc(-c2ccc(O)cc2)oc2c(O)c(O)cc(O)c12 [A3]
- reduction in SGK1 inhibitory activity, absence of -OH at C-3 [1]: significant reduction

SMILES: O=C(O)/C=C/c1ccc(O)cc1 [p-coumaric acid]
- IC50 [1, 3]: 8.04 µM

SMILES: O=c1c(O)c(-c2ccc(O)cc2)oc2c(O)c(O)ccc12 [A2, 3,7,8‐trihydroxy‐2‐(4‐hydroxyphenyl) chromen‐4‐one]
- IC50 [1, 3]: 0.307 µM

SMILES: O=c1c(O)c(-c2ccc(O)cc2)oc2cc(O)ccc12 [A4]
- reduction in SGK1 inhibitory activity, absence of -OH at C-8 [1]: greater than 10 fold
- IC50 ([1]; in figure, n = 3): 11.6 µM

SMILES: CCc1c(C(=O)NNC(=O)C(O)c2cc(F)cc(F)c2)ccc(O)c1C (stereo not drawn) [EMD638683, reference compound]
- IC50 [2]: 3.35 µM

SMILES: O=c1cc(-c2ccc(O)cc2)oc2c(O)c(O)ccc12 [A5]
- reduction in SGK1 inhibitory activity, absence of -OH at C-3 [1]: significant reduction

SMILES: O=c1c(O)c(-c2ccc(O)cc2)oc2cc(O)cc(O)c12 [A1]
- reduction in SGK1 inhibitory activity, absence of -OH at C-8 [1]: greater than 10 fold
- IC50 ([1]; in figure, n = 3): 11.3 µM
